Data set [1] is described as follows: Pharmacokinetic study, drug in aqueous humor after eye glass cavity injection (Example 5). It is filed as in vivo. As to conditions: SD rats, 5 μl injected into each glass cavity, detected 10 days after the surgery. As to the method:
SD rats (about 10 weeks old, male or female) were anesthetized by intraperitoneal injection of pentobarbital sodium and pupil was dilated, then eye glass cavity injection surgery was performed. All animals were injected with the same kind of drugs in both eyes. The amount of drug injected into each glass cavity was 5 μl, and the number of test animals per drug formulation (Example 1, Example 2 and Comparative Example 1) was four, and the drug metabolism in the aqueous humor was detected 10 days after the surgery.

The target of data set [2] is T1, wild-type αB lens protein aggregate (WT αB) (Homo sapiens, UniProt P02511).
T1 sequence (P02511 1-175): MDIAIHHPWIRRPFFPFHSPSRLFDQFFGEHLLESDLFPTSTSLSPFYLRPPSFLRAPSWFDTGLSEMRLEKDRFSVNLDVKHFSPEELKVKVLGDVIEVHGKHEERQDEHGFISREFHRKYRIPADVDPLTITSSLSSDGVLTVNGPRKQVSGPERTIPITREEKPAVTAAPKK
Put plainly: Dissolution of lens protein aggregates, ThT fluorescence (Example 22). Format: biochemical. To be noted: liposome form, final concentration 125 μM, 24 hours, versus blank liposomes (FIG. 33). The protocol: The experimental method was as follows: Inotodiol was used as test compound, and its dissolution effect on wild-type αB lens protein aggregate (WT αB) was measured, and lanosterol was used as positive control.
In the present example, the formulations of pharmaceutical composition in the test group and the control group were liposome, wherein the component of the formulation of test group was 40 mg of DPPC, 10 mg of cholesterol and 10 mg of test compound; the component of the formulation of positive control group was 40 mg of DPPC, 10 mg of cholesterol and 10 mg of lanosterol; the component of formulation of the blank control group was 40 mg of DPPC and 10 mg of cholesterol. […]
The analysis of compound concentration in the liposome formulation: The obtained liposome solution was demulsificated with 4 to 5 volumes of methanol solution to afford clear solution. The concentration of compound in the liposome was determined by HPLC method, and the chromatographic conditions are as follows. […] After the comparative analysis, the concentration of corresponding compound in the liposome preparation was determined.
The induction of protein aggregates is as follows. […] After the treatment, ThT fluorescence was used to detect the effect of different compounds on αB lens protein aggregates.

The nature of data set [3]: Heat stability at 80° C. versus 4° C., HPLC and appearance (Example 18). Format: physicochemical. As to conditions: for content after heat storage / initial experiment purity: HPLC; for initial experiment purity: stored at 4° C. The protocol: The heatl stabilities of inotodiol and trametenolic acid were tested, and lanosterol was used as a reference at the same time.

For data set [4], the target named is T2, mutated lens protein (αB-crystallin R120G) (Homo sapiens, UniProt P02511, R120G).
T2 construct: expressed in transfected cells; host or cells: HeLa
T2 sequence (P02511 1-175 R120G): T1 sequence (P02511 1-175) with R120G
Put plainly: Intracellular mutated lens protein aggregation inhibition experiment in transfected HeLa cells (Example 21). Format: cell-based. As to conditions: 10 μM, treated 3.5 hours, then 6.5 h normal medium, fewer + = better. The protocol:
In this example, apart of the specific compounds obtained in Example 19 and Example 20 were selected for intracellular mutated lens protein (αB-crystallin R120G) aggregation inhibition experiment (experimental method was described in Chinese patent CN201580057679). The aggregation inhibition activities of compound I and compound II in the present invention on lens protein mutants were evaluated to screen a compound which was effective in treating related disease such as cataract.
The tumor cell line HeLa was selected as a host cell transfected with the mutant lens protein (αB-crystallin […]) expression plasmid, the medium was DMEM with […], and the culture conditions were 37° C., saturated humidity and 5% carbon dioxide cell incubator. Mycoplasma was negative. The transfection process is that the appropriate number of HeLa cells were inoculated on the pre-coated slides. When fully adherent cells grew to about 75% cell density, the expression vector was transfected with liposome. After 4 hours of transfection, the medium was changed to normal medium. Then the HeLa cells were cultured in the cell incubator for 13 hours to induce the expression of exogenous mutant lens protein. After changing the medium, the replaced new medium contained various compounds of the formula I and formula II of the present invention to be tested (DMSO was used as solvent in all mother fluid), wherein the final concentration of each compound was 10 μM, the negative control was 1.5% DMSO solvent, and the positive control was lanosterol (10 μM). The HeLa cells were treated with the medium containing the test compound, 1.5% DMSO solvent and lanosterol for 3.5 hours, respectively, and the normal fresh medium containing no DMSO, test compound or lanosterol was exchanged and the cells were cultured for another 6.5 h, then Anti-p62 antibody and DAPI were used for routine cellular immunofluorescence detection. The field of vision of three positions per slide was randomly selected, the ratio of cells containing aggregated crystalline proteins (lens protein aggregates) was calculated, and the effect of each test compound on intracellular aggregation of mutant lens proteins was finally determined, the results were shown in Table 19.

Data set [5] has as its system diabetic metabolite cataract. In words: Therapeutic effect on diabetic metabolite cataract, streptozotocin model (Example 11). Format: in vivo, SD rats. To be noted: right eye of diabetic rat, pictures before and after 2 months of treatment (FIG. 25-29).
The test system of a further data set is cataract lens. As to conditions: direct administration to the eyeball or lens, primates; cited from earlier work.
In the next data set the test system is traumatic cataract. In words: Therapeutic effect of eye ointment on traumatic cataract (Example 10). To be noted: pictures before and after administration (FIG. 22-24, Table 10). It is filed as in vivo, SD rats.
The test system of the next data set is cataract. As to conditions: sustained-release lanosterol drug, dogs; cited from earlier work.
Where [6] appears, read: 80° C. for 1 week, compared with 4° C.
Where [7] appears, read: 80° C. for 2 weeks, compared with 4° C.

We go through three molecules from patent US20200384003A1, “TRITERPENOID-CONTAINING PHARMACEUTICAL COMPOSITION AND USE THEREOF” (SHANGHAI LANMU CHEMICALS CO., LTD., priority 2017, published 2020).

Molecules are shown by their SMILES. Numbering of substitutions follows the chain as printed.

With `CC(C)=CCC(O)[C@@H](C)[C@H]1CC[C@@]2(C)C3=C(CC[C@]12C)[C@@]1(C)CC[C@H](O)C(C)(C)C1CC3` (stereo partly shown) [Inotodiol, inotodiol], in data set [1], the “decrease of drug concentration in aqueous humor compared with initial concentration immediately after injection” value (“decrease of drug concentration” for short) was 11%±2.3%. Also, the “ThT fluorescence signal of αB lens protein aggregates” value in data set [2] is on record as “significantly reduce the ThT fluorescence signal”. In addition, the “appearance after heat storage” value is “did not change” in data set [3] (setting [6]) and “began to turn yellow” in data set [3] (setting [7]). Besides, the “content after heat storage” value in data set [3] (80° C. for 1 day) is recorded as 88%; in data set [3] (80° C. for 2 day), 68%; in data set [3] (80° C. for 3 day), 67%. This molecule also yielded an initial experiment purity in data set [3] of 94%. For the same molecule, the “Inhibitory effect (percentage of cells containing aggregated proteins)” value in data set [4] is listed as “+ (<30% of the cells in the field of vision contained protein aggregates)”.

With `CC(C)=CCC[C@@H](C(=O)O)[C@H]1CC[C@@]2(C)C3=C(CC[C@]12C)[C@@]1(C)CC[C@H](O)C(C)(C)C1CC3` (stereo partly shown) [Trametenolic acid, trametenolic acid], the “decrease of drug concentration” value in data set [1] is 8%±1.5%. The “appearance after heat storage” value in data set [3] (setting [6]) is “did not change”; in data set [3] (setting [7]), “no significant change in appearance and purity”. Further, in data set [3] (80° C. for 2 weeks), the “purity after heat storage” value is given as “above 93%”. Also, the figures for the “content after heat storage” value in data set [3] (80° C. for 1 day), in data set [3] (80° C. for 2 day) and in data set [3] (80° C. for 3 day) were 97%, 96% and 96%, respectively. In data set [3], this molecule gave an initial experiment purity of 98%. Moreover, the “turbid area of lens / course of cataract after administration” value in data set [5] is “reduced in a large extent”. In data set [4], the “Inhibitory effect (percentage of cells containing aggregated proteins)” value is listed as “+ (<30% of the cells in the field of vision contained protein aggregates)”.

On to `CC(C)=CCC[C@@H](C)[C@H]1CC[C@@]2(C)C3=C(CC[C@]12C)[C@@]1(C)CC[C@H](O)C(C)(C)[C@@H]1CC3` [lanosterol, reference compound], for which the “decrease of drug concentration” value in data set [1] is recorded as 82%±14.7%. The “transparency of cataract lens” value in the data set on cataract lens is on record as “does not restore or improve the transparency of cataract lens in primates”. In addition, in data set [2], the “ThT fluorescence signal of αB lens protein aggregates” value is on record as “increased the ThT fluorescence signal”. The “appearance after heat storage” value in data set [3] (setting [6]) was “one third of the lanosterol turned yellow”; in data set [3] (setting [7]) it was “All lanosterol turned yellow”; in data set [3] (80° C. for 1 day), “the powder became hard and formed into a large piece”. For the same molecule, the “purity after heat storage” value in data set [3] (80° C. for 2 weeks) stood at 32%. In addition, the “content after heat storage” value amounted to 73% in data set [3] (80° C. for 1 day), 48% in data set [3] (80° C. for 2 day) and 44% in data set [3] (80° C. for 3 day). This molecule also returned an initial experiment purity in data set [3] of 96%. In the data set on traumatic cataract, the “cortical turbidity area of eyes with traumatic cataract, transparency after administration” value is reported as “could restore transparency of lens with slight turbidity, but no obvious reversal of the disease has been observed in severe cataract”. Besides, in data set [5], the “turbid area of lens / course of cataract after administration” value is “increased”. Further, the “Inhibitory effect (percentage of cells containing aggregated proteins)” value in data set [4] is on record as “+++ (>60% of the cells in the field of vision contain protein aggregates)”. For the same molecule, the cataract treatment effect result in the data set with cataract is given as “has a cataract treatment effect on dogs only when combined with high-frequency intravitreal injection”.
